Test systems include HOP-92 NSCLC; BT-549 breast; SK-MEL-28 melanoma; MOLT-4 leukemia; SR leukemia; HCT-15 colon; MDA-MB-435; HL-60(TB) leukemia; SF-268 CNS; A498 renal.
Holding throughout (experiment): growth of human tumour cells (NCI), 48 h

For 9 compounds, TGI and GI50 results are on record in PubChem BioAssay (NCI).

“And” between values parts separate entries of the source, which are not always exact repeats. Identical values can stand only once.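 Method: 48-hour compound exposure of cells in 96-well plates, five concentrations, linear interpolation of endpoints. GI50 is the concentration that inhibits growth by half. TGI is the concentration that stops growth completely.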

For `O=C1/C(=C\c2ccccn2)c2ccccc2N1c1c(Cl)cccc1Cl`, the TGI with HOP-92 NSCLC was 6.28 µM; in the assay on BT-549 breast, 4.88 µM; with SK-MEL-28 melanoma, 4.03 µM; with MOLT-4 leukemia, above 65.7 µM; in the assay with SR leukemia it was above 100 µM; with HCT-15 colon it was 5.3 µM. Besides, the TGI in the assay on MDA-MB-435 was 5.03 µM; in the assay on HL-60(TB) leukemia, above 29.6 µM; in the assay on SF-268 CNS it was 9.54 µM; in the assay with A498 renal it was 5.98 µM. The GI50 in the assay with BT-549 breast is 2.21 µM; in the assay on SK-MEL-28 melanoma it was 1.84 µM; in the assay on MOLT-4 leukemia, 4.2 µM; in the assay with SR leukemia it was 5.07 µM; in the assay on HCT-15 colon, 2.11 µM; in the assay on MDA-MB-435, 1.93 µM. Also, the GI50 with HL-60(TB) leukemia was 3.75 µM; with SF-268 CNS it was 2.96 µM; in the assay on A498 renal, 2.1 µM.

As for `COc1ccc(-c2c3c(n(C4OC(COC(C)=O)C(OC(C)=O)C(OC(C)=O)C4OC(C)=O)c(=S)c2C#N)CC(C)(C)CC3=O)cc1` (stereo unspecified), the GI50 with HOP-92 NSCLC was 32.7 µM and > 100 µM; in the assay with SK-MEL-28 melanoma, 42 µM and > 100 µM; in the assay on HCT-15 colon, 40.7 µM and > 100 µM; in the assay with MDA-MB-435, 22.5 µM and 71.7 µM; in the assay with HL-60(TB) leukemia, 18.4 µM and 47.6 µM; with SF-268 CNS, 38.9 µM and > 100 µM. The GI50 in the assay with A498 renal was 42.1 µM and > 100 µM. Moreover, the TGI in the assay on HOP-92 NSCLC is above 100 µM; in the assay on BT-549 breast it was 93.3 µM and > 100 µM; with SK-MEL-28 melanoma, above 100 µM; in the assay on MOLT-4 leukemia, 57.1 µM and > 100 µM; in the assay with SR leukemia, 74.7 µM and > 100 µM; in the assay on HCT-15 colon, above 100 µM. Besides, the TGI in the assay with MDA-MB-435 was 65.6 µM and > 100 µM; in the assay with HL-60(TB) leukemia, 42.5 µM and > 100 µM; in the assay on SF-268 CNS, above 100 µM; in the assay with A498 renal, above 100 µM.

Regarding `CNC(=O)Cc1nc(-c2cccc(NS(=O)(=O)c3c(F)cccc3F)c2F)c(-c2ccnc(Nc3ccccc3)n2)s1`, the GI50 was 0.355 µM with HOP-92 NSCLC; above 35.8 µM with BT-549 breast; 0.0185 µM with SK-MEL-28 melanoma; 12.5 µM in the assay on MOLT-4 leukemia; 8.07 µM in the assay on SR leukemia; 7.37 µM in the assay on HCT-15 colon. For the same compound, the GI50 was 0.0445 µM in the assay with MDA-MB-435, 3.96 µM with HL-60(TB) leukemia, 6.98 µM in the assay with SF-268 CNS and 2.6 µM in the assay on A498 renal. Moreover, the TGI in the assay on HOP-92 NSCLC is above 14.4 µM; in the assay with BT-549 breast, above 50 µM; with SK-MEL-28 melanoma, above 50 µM; in the assay with MOLT-4 leukemia, above 50 µM; in the assay on SR leukemia it was above 50 µM; in the assay on HCT-15 colon, above 50 µM. Also, the TGI in the assay with MDA-MB-435 was above 44 µM; in the assay on HL-60(TB) leukemia, above 50 µM; with SF-268 CNS, above 50 µM; in the assay with A498 renal it was 18.5 µM.

Consider `COc1cccc(C2c3cc4c(cc3OC(N3CCCC3)C2C)OCO4)c1O` (stereo unspecified), for which the TGI in the assay on HOP-92 NSCLC was 41.5 µM; in the assay with BT-549 breast, above 43 µM; in the assay with SK-MEL-28 melanoma, 81.1 µM; with MOLT-4 leukemia, 93 µM; with SR leukemia it was 25 µM; with HCT-15 colon, 38.4 µM. Also, the TGI was 4.61 µM in the assay with MDA-MB-435, 31.5 µM in the assay on HL-60(TB) leukemia, 70.1 µM in the assay with SF-268 CNS and 33.7 µM in the assay with A498 renal.

Turning to `O=C1C=CC(=O)c2cc(Sc3ccccc3)c(=O)ccc21`, the TGI in the assay on HOP-92 NSCLC was above 52.7 µM; with BT-549 breast it was 40 µM; with SK-MEL-28 melanoma, 35.1 µM; in the assay on MOLT-4 leukemia, 16 µM; in the assay with SR leukemia it was 5.96 µM; with HCT-15 colon, 33.1 µM. For the same compound, the TGI with MDA-MB-435 was found to be 71 µM; in the assay on HL-60(TB) leukemia, 1.79 µM; with SF-268 CNS, 44.4 µM; in the assay with A498 renal, 31.4 µM.

For the compound `O=C(/C=C/c1ccccc1)n1c(-c2ccc(Cl)cc2)nc2ccccc21`, the GI50 in the assay with HOP-92 NSCLC was 1.46 µM; with BT-549 breast it was 1.67 µM; with SK-MEL-28 melanoma it was 1.49 µM; in the assay with MOLT-4 leukemia, 1.13 µM; in the assay with SR leukemia, 0.379 µM; in the assay on HCT-15 colon, 1.34 µM. The GI50 was 1.11 µM in the assay with MDA-MB-435, 1.4 µM in the assay on HL-60(TB) leukemia, 2.1 µM in the assay on SF-268 CNS and 1.17 µM in the assay with A498 renal. Also, the TGI came out at 3.82 µM in the assay on HOP-92 NSCLC; 3.22 µM with BT-549 breast; 3.22 µM in the assay on SK-MEL-28 melanoma; 6.73 µM in the assay on MOLT-4 leukemia; 1.88 µM in the assay on SR leukemia; 7.06 µM with HCT-15 colon. Further, the TGI in the assay on MDA-MB-435 was 3.04 µM; with HL-60(TB) leukemia it was 4.88 µM; in the assay with SF-268 CNS, 6.14 µM; in the assay on A498 renal, 2.56 µM.

Consider `COC(=O)c1cc(O)c2c(c1C(=O)OC)C[C@H]1[C@@H]3CC=C4C[C@@H](O)CC[C@]4(C)[C@H]3CC[C@]21C`, for which the GI50 is 2.59 µM with HOP-92 NSCLC; 2.29 µM in the assay with BT-549 breast; 2.71 µM in the assay with SK-MEL-28 melanoma; 2.22 µM in the assay on MOLT-4 leukemia; 3.41 µM in the assay on SR leukemia; 3.03 µM with HCT-15 colon. For the same compound, the GI50 is 3.01 µM with MDA-MB-435, 3.03 µM with HL-60(TB) leukemia, 3.13 µM in the assay with SF-268 CNS and 3.7 µM in the assay on A498 renal. For the same compound, the TGI is 8.2 µM in the assay on HOP-92 NSCLC; 6.98 µM in the assay with BT-549 breast; 8.59 µM in the assay with SK-MEL-28 melanoma; 5.56 µM in the assay with MOLT-4 leukemia; above 100 µM in the assay with SR leukemia; 35.1 µM in the assay on HCT-15 colon. In addition, the TGI in the assay with MDA-MB-435 was 20.6 µM; in the assay with HL-60(TB) leukemia, 6.93 µM; in the assay with SF-268 CNS it was 13 µM; with A498 renal, 20.1 µM.

Regarding `Cc1ccc(C)c(C2NC(=O)c3ccccc3N2)c1` (stereo unspecified), the TGI was above 100 µM with HOP-92 NSCLC; above 71.6 µM with BT-549 breast; above 100 µM with SK-MEL-28 melanoma; 31.9 µM in the assay with MOLT-4 leukemia; above 27.4 µM with SR leukemia; 50.6 µM with HCT-15 colon. Also, the TGI is 0.832 µM in the assay on MDA-MB-435, 0.56 µM in the assay on HL-60(TB) leukemia, above 100 µM in the assay on SF-268 CNS and 32 µM in the assay with A498 renal.

`COc1cc(Nc2nc3ccccc3cc2C(=O)Nc2ccc(F)c(F)c2)cc(OC)c1OC`: the GI50 with HOP-92 NSCLC is 1.98 µM; with BT-549 breast, 2.48 µM; in the assay with SK-MEL-28 melanoma, 3.54 µM; in the assay on MOLT-4 leukemia, 2.04 µM; in the assay on SR leukemia it was 2.71 µM; in the assay on HCT-15 colon, 2.91 µM. Also, the GI50 was 2.19 µM with MDA-MB-435, 2.43 µM with HL-60(TB) leukemia, 3.96 µM in the assay on SF-268 CNS and 2.39 µM with A498 renal. For the same compound, the TGI in the assay on HOP-92 NSCLC is 5.75 µM; with BT-549 breast, 6.54 µM; in the assay with SK-MEL-28 melanoma, above 100 µM; with MOLT-4 leukemia it was 6.15 µM; with SR leukemia it was 9.4 µM; with HCT-15 colon, above 100 µM. Further, the TGI is 5.17 µM in the assay on MDA-MB-435, 7.14 µM in the assay with HL-60(TB) leukemia, above 100 µM in the assay on SF-268 CNS and 8.25 µM with A498 renal.
